In patent US8598195B2, “Peptidomimetic compounds” (priority 2008, dated 2013):

Tests used:
Recombinant human PAI-1 = Recombinant human PAI-1 (Homo sapiens, UniProt P05121); experiment: Plasma clot lysis assay for testing of PAI-1 inhibitors; type: biochemical; settings: clot lysis in platelet-poor plasma (50%), PAI-1 10-13 ng/mL, t-PA 34 ng/mL, 37° C.; IC50 = concentration at which a halving of the clot lysis time was reached
Protocol: Plasma Clot Lysis Assay for Testing of PAI-1 Inhibitors
CaCl2, p.a. Stock solution 0.1 M in water.
PAI-1 inhibitors dissolved in 100% DMSO.
Clot Lysis in Platelet-Poor Plasma
Blood from healthy fat-fasting volunteers was collected into 0.13 M trisodium citrate, 9 parts blood to 1 part anticoagulant. The tubes were centrifuged at 2000×g, 20 min, at RT. The supernatant, ie, the platelet poor plasma was pooled, aliquoted and frozen at −85° C. until used. At the day of experiment the plasma was thawed in a water bath and temperated to 37° C. All other constituents, except t-PA, were prewarmed to 37° C. To each well on a microtiter plate, 25 μL CaCl2, 25 μL PAI-1 or 25 μL PAI-1 vehicle, 20 μL saline and 5 μL drug or 5 μL vehicle (100% DMSO) were added. Plasma was mixed with cold t-PA solution in the relation 4 parts plasma with 1 part t-PA, just before adding 125 μL of this mixture to each well. The final concentration was 12.5 mM for CaCl2, 10-13 ng/mL for PAI-1, 34 ng/mL for t-PA, and the compounds were tested at a final concentration range 0.1 nM to 0.25 mM. The final plasma concentration was 50%, as a result of the different additives. The plate, covered with a plastic lid, was placed in a Microplate reader (Molecular Devices, US) and gently shaken. The change in turbidity was immediately monitored as a change in absorbance at 405 nm at 37° C. Data points were collected at intervals of 2 min, during a period of 10 h. After finished reading, the absorbance data were transformed into files containing the time and absorbance values for each well. The clot longevity, ie, the time the clot exists, was determined as the time between clot formation, ie, positive Vmax, and clot lysis, ie, negative Vmax. The effect of the drugs, ie, shortening of the longevity for the clot, was expressed as the concentration at which a halving of the clot lysis time was reached, the IC50 (pIC50=−log IC50). Control clot lysis time, set to 100%, was determined in the presence of PAI-1, and the maximal effect, ie, the shortest lysis time that can be reached under defined conditions in this system, in the absence of PAI-1 was set to 0%.
Compounds having a pIC50 higher than 4 were considered as being active.

Aβ 1-40 = target: T1, Aβ 1-40 (Homo sapiens, UniProt P05067); experiment: Aβ aggregation assay for testing of inhibition of amyloid fibril formation (Thioflavin T fluorescence); type: biochemical; settings: 100 μM Aβ 1-40, 5% DMSO, 37° C., 24 hours; FIG. 1
T1 construct: Lyophilized Aβ 1-40 was dissolved to 500 μM in 4 mM NaOH and divided in two parts
Protocol: Effect of test substances on aggregation of Aβ 1-40 was measured by detecting fluorescence of added Thioflavin T (ThT). The ThT-fluorescence of Aβ 1-40 aggregated in the presence of the indicated substances was compared to the ThT-fluorescence of Aβ 1-40 aggregated in the presence of 5% DMSO.
Aβ Aggregation Assay for Testing of Inhibition Amyloid Fibril Formation
Lyophilized Aβ 1-40 was dissolved to 500 μM in 4 mM NaOH and divided in two parts. One part was diluted to 20 μM in PBS (50 mM phosphate buffer pH 7.4 containing 100 mM NaCl) and coated onto an ELISA 96-well plate (Costar) for 1 h at room temperature. The plate was washed in PBS to remove unbound Aβ 1-40. Substances (in DMSO) were diluted with PBS to different concentrations in the Aβ 1-40 coated ELISA plate. The second part of NaOH-solubilized Aβ 1-40 was thereafter added to each well to yield a final concentration of 100 μM Aβ 1-40 and 5% DMSO. The plate was incubated at 37° C. with agitation (600 rpm) for 24 hours to allow aggregation of Aβ 1-40.
The Aβ-substance mix was after aggregation diluted 10 times with 25 μM Thioflavin T (ThT) in PBS. The ThT-fluorescence was detected immediately by excitation at 450 nm and emission at 482 nm. The ThT-fluorescence of Aβ 1-40 aggregated with substances was compared to the ThT-fluorescence of Aβ 1-40 aggregated in the presence of 5% DMSO.

Recombinant human PAI-1, sequence (P05121 24-402): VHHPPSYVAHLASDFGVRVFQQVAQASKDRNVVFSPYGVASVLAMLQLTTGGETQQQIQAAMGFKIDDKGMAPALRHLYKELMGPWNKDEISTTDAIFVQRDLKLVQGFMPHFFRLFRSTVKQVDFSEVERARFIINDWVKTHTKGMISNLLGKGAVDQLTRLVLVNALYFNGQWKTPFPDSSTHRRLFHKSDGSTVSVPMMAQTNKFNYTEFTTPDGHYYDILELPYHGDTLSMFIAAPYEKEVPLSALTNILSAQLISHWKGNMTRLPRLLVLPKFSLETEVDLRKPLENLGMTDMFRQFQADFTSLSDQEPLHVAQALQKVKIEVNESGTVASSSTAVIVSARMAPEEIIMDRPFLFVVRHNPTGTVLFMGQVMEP
T1 sequence (P05067 672-711): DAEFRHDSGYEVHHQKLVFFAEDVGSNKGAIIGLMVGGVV

| IC50 (Recombinant human PAI-1) | Structure (SMILES) | Effect on aggregation of Aβ 1-40 (ThT-fluorescence compared to 5% DMSO) (Aβ 1-40) |
| --- | --- | --- |
| 20 µM | CCCc1n[nH]c2c(=O)n3c(c(-c4cccc(C(F)(F)F)c4)c12)SC[C@H]3C(=O)O [Example 22, (7R)-9-oxo-3-propyl-4-[3-(trifluoromethyl)phenyl]-1,6,7,9-tetrahydropyrazolo[4,3-d][1,3]thiazolo[3,2-a]pyridine-7-carboxylic acid] |  |
| 15.8 µM | CCCCCc1n[nH]c2c(=O)n3c(c(-c4cccc(C(F)(F)F)c4)c12)SC[C@H]3C(=O)O [Example 23, (7R)-9-oxo-3-pentyl-4-[3-(trifluoromethyl)phenyl]-1,6,7,9-tetrahydropyrazolo[4,3-d][1,3]thiazolo[3,2-a]pyridine-7-carboxylic acid] |  |
| 12.6 µM | CCCCCCc1n[nH]c2c(=O)n3c(c(-c4cccc(C(F)(F)F)c4)c12)SC[C@H]3C(=O)O [Example 25, (7R)-3-hexyl-9-oxo-4-[3-(trifluoromethyl)phenyl]-1,6,7,9-tetrahydropyrazolo[4,3-d][1,3]thiazolo[3,2-a]pyridine-7-carboxylic acid] |  |
| 79.4 µM | CCn1nc(CC(C)C)c2c(-c3cccc(C(F)(F)F)c3)c3n(c(=O)c21)[C@H](C(=O)O)CS3 [Example 27, (7R)-1-ethyl-3-isobutyl-9-oxo-4-[3-(trifluoromethyl)phenyl]-1,6,7,9-tetrahydropyrazolo[4,3-d][1,3]thiazolo[3,2-a]pyridine-7-carboxylic acid] |  |
| 50.1 µM | CCCCCCc1n[nH]c2c(=O)n3c(c(-c4ccc(F)c(F)c4)c12)SC[C@H]3C(=O)O [Example 28, (7R)-4-(3,4-difluorophenyl)-3-hexyl-9-oxo-1,6,7,9-tetrahydropyrazolo[4,3-d][1,3]thiazolo[3,2-a]pyridine-7-carboxylic acid] |  |
| 6.31 µM | CCCCCCc1n[nH]c2c(=O)n3c(c(-c4ccc(F)c(F)c4)c12)SC[C@H]3C(=O)NS(=O)(=O)c1ccccc1 [Example 29, (7R)-4-(3,4-difluorophenyl)-3-hexyl-9-oxo-N-(phenylsulfonyl)-1,6,7,9-tetrahydropyrazolo[4,3-d][1,3]thiazolo[3,2-a]pyridine-7-carboxamide] |  |

Second part, the compound before the results:

| Structure (SMILES) | IC50 (Recombinant human PAI-1) | Effect on aggregation of Aβ 1-40 (ThT-fluorescence compared to 5% DMSO) (Aβ 1-40) |
| --- | --- | --- |
| CC(C)Cc1n[nH]c2c(=O)n3c(c(-c4cccc(C(F)(F)F)c4)c12)SC[C@H]3C(=O)O [Example 21, (7R)-3-isobutyl-9-oxo-4-[3-(trifluoromethyl)phenyl]-1,6,7,9-tetrahydropyrazolo[4,3-d][1,3]thiazolo[3,2-a]pyridine-7-carboxylic acid] | 25.1 µM | interfere with the formation of amyloid fibrils |
| O=C(O)[C@@H]1CSc2c(-c3cccc(C(F)(F)F)c3)c3cn[nH]c3c(=O)n21 [Example 24, (7R)-9-oxo-4-[3-(trifluoromethyl)phenyl]-1,6,7,9-tetrahydropyrazolo[4,3-d][1,3]thiazolo[3,2-a]pyridine-7-carboxylic acid] | 25.1 µM |  |
| CC(C)CC1=NN=C2C(=O)N3C(SC[C@H]3C(=O)O)C(c3ccccc3)=C12 (stereo partly drawn) [Example 37, (7R)-6,7-dihydro-3-isobutyl-4-phenyl-pyrazolo[4,5-d]thiazolo[3,2-a]pyridine-9-one-7-carboxylic acid] |  | interfere with the formation of amyloid fibrils |
| COc1ccc(C2=NN=C3C(=O)N4C(SC[C@H]4C(=O)O)C(c4ccccc4)=C32)cc1 (stereo partly drawn) [Example 39, (7R)-6,7-dihydro-3-(4-methoxyphenyl)-4-phenyl-pyrazolo[4,5-d]thiazolo[3,2-a]pyridine-9-one-7-carboxylic acid] |  | interfere with the formation of amyloid fibrils |
